Results taken from US10577399B2, “Modified lantibiotics and methods of making and using the modified lantibiotics” (priority 2016, dated 2020).
Converted amounts (≈) assume the structure as drawn. Read-outs that look alike come from different tables or passages of the source. No end group written: not given here.

What was measured:
M. luteus ATCC 10240 = type: cell-based, Micrococcus luteus; conditions: for MIC (μg/mL) M. luteus: Table 7, chemically modified analogs; for M. luteus ATCC 10240 MIC / M. luteus ATCC 10240 MLC: Table 11
Experimental: (§1) Minimum Inhibitory Concentrations (MICs) were determined according to previously published protocol^31. A stock solution of the antibiotics tested was first suspended in 50% acetonitrile (ACN) at a concentration 640 μg/mL. This stock was subsequently diluted 2-fold until a final concentration 0.156 μg/mL was reached. Subsequently, 10 μl of each dilution was placed into a well on a 96 well microtiter plate. M. luteus ATCC 10240, S. pneumoniae, and B. subtilis PY79 were grown overnight in THyex at 37° C. Cultures were diluted in the morning to 0.1 OD600 and allowed to grow to 0.6 OD600. This culture was diluted a 100-fold in fresh THyex media and then 400 μl of this culture was added to 10 mL of fresh THyex. The suspension contains approximately 10^5 colony forming units (CFUs). The bacterial suspension (190 μL) was added to each well containing 10 μL of antibiotic suspension or solvent blank. […] Following the 15 minute pretreatment, 190 μL was added to each well as described above. The MIC is described as the […] concentration of antibiotic that prevented visible growth after 24 hours.
FIG. 11 illustrates the bioactivity of various core peptide mutants of mutacin 1130. The activity of the core mutant peptides is expressed as a ratio of the area of the zone of inhibition of each mutant strain to the area of the zone of inhibition of the wild-type strain against indicator strain of Micrococcus luteus. […] The deferred antagonism assay is an overlay assay of the indicator strain onto plates containing heat killed colonies of the mutacin producer strain after growing overnight. Core peptide mutants having inhibitory activity were isolated and the purified products were further evaluated by a standard minimum inhibitory concentration (MIC) assay.

S. pneumoniae ATCC 27336 = type: cell-based, Streptococcus pneumoniae; conditions: for MIC (μg/mL) S. pneumoniae: Table 7, S. pneumoniae ATCC 27336; for S. pneumonia ATCC 27336 MIC / S. pneumonia ATCC 27336 MLC: Table 11
Experimental: as §1, with “hours. […]” for “hours.”

S. aureus ATCC 25923 = assay: MIC/MLC assay against S. aureus; type: cell-based, Staphylococcus aureus; conditions: Table 11
C. accolens ATCC 49725 = assay: MIC/MLC assay against C. accolens ATCC 49725; type: cell-based; conditions: THyex broth with 1% Tween 80
C. accolens KPL 1818 = assay: MIC/MLC assay against C. accolens KPL 1818; type: cell-based; conditions: THyex broth with 1% Tween 80
[1] = listed as diaminoheptane conjugate

Molecule | MIC (μg/mL) M. luteus (M. luteus ATCC 10240; listed as chlorophenylalanine conjugate) [µg/mL] | MIC (μg/mL) M. luteus (M. luteus ATCC 10240) [µg/mL] | MIC (μg/mL) M. luteus (M. luteus ATCC 10240; [1]) [µg/mL] | MIC (μg/mL) S. pneumoniae (S. pneumoniae ATCC 27336; [1]) [µg/mL] | S. aureus ATCC 25923 MIC (S. aureus ATCC 25923) [micrograms per milliliter] | S. aureus ATCC 25923 MLC (S. aureus ATCC 25923) [micrograms per milliliter] | M. luteus ATCC 10240 MIC (M. luteus ATCC 10240) [micrograms per milliliter] | M. luteus ATCC 10240 MLC (M. luteus ATCC 10240) [micrograms per milliliter] | C. accolens ATCC 49725 MIC (C. accolens ATCC 49725) [micrograms per milliliter] | C. accolens ATCC 49725 MLC (C. accolens ATCC 49725) [micrograms per milliliter] | S. pneumonia ATCC 27336 MIC (S. pneumoniae ATCC 27336) [micrograms per milliliter] | S. pneumonia ATCC 27336 MLC (S. pneumoniae ATCC 27336) [micrograms per milliliter] | C. accolens KPL 1818 MIC (C. accolens KPL 1818) [micrograms per milliliter] | C. accolens KPL 1818 MLC (C. accolens KPL 1818) [micrograms per milliliter] | MIC (μg/mL) S. pneumoniae (S. pneumoniae ATCC 27336; listed as di-chlorophenylalanine conjugate) [µg/mL] | MIC (μg/mL) S. pneumoniae (S. pneumoniae ATCC 27336) [µg/mL]
C=C1NC(=O)[C@H](Cc2c[nH]c3ccccc23)NC(=O)[C@H](NC(=O)[C@H](CCCCN)NC(=O)[C@@H](N)Cc2ccccc2)CSC[C@@H](C(=O)N[C@H]2C(=O)N3CCC[C@H]3C(=O)NCC(=O)N[C@H](C(=O)N[C@@H](C)C(=O)N[C@@H](CCCNC(=N)N)C(=O)N/C(=C\C)C(=O)NCC(=O)N[C@@H]3CSC[C@@H]4NC(=O)[C@H](Cc5ccc(O)cc5)NC(=O)[C@@H](CSC[C@@H](C(=O)NCc5ccc(Cl)cc5)NC4=O)NC(=O)[C@H](CC(N)=O)NC(=O)[C@H](Cc4ccccc4)NC3=O)CS[C@H]2C)NC(=O)[C@H](CC(C)C)NC1=O [Mutacin 1140 - chlorophenylalanine] | 1.0 (≈ 0.411 µM) |  |  |  |  |  |  |  |  |  |  |  |  |  |  | 
C=C1NC(=O)[C@H](Cc2c[nH]c3ccccc23)NC(=O)[C@H](NC(=O)[C@H](CCCCN)NC(=O)[C@@H](N)Cc2ccccc2)CSC[C@@H](C(=O)N[C@H]2C(=O)N3CCC[C@H]3C(=O)NCC(=O)N[C@H](C(=O)N[C@@H](C)C(=O)N[C@@H](CCCNC(=N)N)C(=O)N/C(=C\C)C(=O)NCC(=O)N[C@@H]3CSC[C@@H]4NC(=O)[C@H](Cc5ccc(O)cc5)NC(=O)[C@@H](CSC[C@@H](C(=O)NCCCCCCCN)NC4=O)NC(=O)[C@H](CC(N)=O)NC(=O)[C@H](Cc4ccccc4)NC3=O)CS[C@H]2C)NC(=O)[C@H](CC(C)C)NC1=O [Mutacin 1140 - diaminoheptane] |  | 0.25 (≈ 0.103 µM) | 0.5 (≈ 0.206 µM) | 2.0 (≈ 0.825 µM) |  |  |  |  |  |  |  |  |  |  |  | 
R13A:T14A: core peptide mutant of mutacin 1140, positions 13, 14 replaced by Alanine and Alanine (FKSWSLCTPGCAAAGSFNSYCC; UniProt O68586 42-63, looked up, variant R13A T14A) |  |  |  |  | 32 | 32 | 0.25 | 0.5 | 0.5 | 0.5 | 2 | 2 | 0.5 | 0.5 |  | 
S5G:R13A:T14A: core peptide mutant of mutacin 1140, positions 5, 13 and 14 replaced by Glycine, Alanine and Alanine (FKSWGLCTPGCAAAGSFNSYCC; ends and bridges not checked; cysteine pairing not given here; UniProt O68586 42-63, looked up, variant S5G R13A T14A) |  |  |  |  | >32 | >32 | 2 | 16 | >4 | >4 | 8 | >16 | >4 | >4 |  | 
S5G:T14G: core peptide mutant of mutacin 1140, positions 5, 14 replaced by Glycine and Glycine (FKSWGLCTPGCARGGSFNSYCC; ends and bridges not checked; cysteine pairing not given here; UniProt O68586 42-63, looked up, variant S5G T14G) |  |  |  |  | 8 | 16 | 0.5 | 0.5 | 1 | 1 | 2 | 2 | 0.5 | 1 |  | 
S5A:A12S dehydrated: core peptide mutant of mutacin 1140, positions 5, 12 replaced by Alanine and Serine; dehydrated form (FKSWALCTPGCSRTGSFNSYCC; ends and bridges not checked; also: dehydrated form; UniProt O68586 42-63, looked up, variant S5A A12S) |  |  |  |  | 16 | 32 | 0.125 | 0.25 | 0.25 | 0.25 | 0.125 | 0.125 | 0.5 | 1 |  | 
S5A:A12S un-dehydrated: core peptide mutant of mutacin 1140, positions 5, 12 replaced by Alanine and Serine; un-dehydrated form (FKSWALCTPGCSRTGSFNSYCC; ends and bridges not checked; cysteine pairing not given here; UniProt O68586 42-63, looked up, variant S5A A12S) |  |  |  |  | 16 | 16 | 0.125 | 0.25 |  |  | 0.125 | 0.125 |  |  |  | 
C=C1NC(=O)[C@H](Cc2c[nH]c3ccccc23)NC(=O)[C@H](NC(=O)[C@H](CCCCN)NC(=O)[C@@H](N)Cc2ccccc2)CSC[C@@H](C(=O)N[C@H]2C(=O)N3CCC[C@H]3C(=O)NCC(=O)N[C@H](C(=O)N[C@@H](C)C(=O)N[C@@H](CCCNC(=N)N)C(=O)N/C(=C\C)C(=O)NCC(=O)N[C@@H]3CSC[C@@H]4NC(=O)[C@H](Cc5ccc(O)cc5)NC(=O)[C@@H](CSC[C@@H](C(=O)NCc5ccc(Cl)c(Cl)c5)NC4=O)NC(=O)[C@H](CC(N)=O)NC(=O)[C@H](Cc4ccccc4)NC3=O)CS[C@H]2C)NC(=O)[C@H](CC(C)C)NC1=O [Mutacin 1140 - di-chlorophenylalanine] |  |  |  |  |  |  |  |  |  |  |  |  |  |  | 8.0 (≈ 3.24 µM) | 
C=C1NC(=O)[C@H](Cc2c[nH]c3ccccc23)NC(=O)[C@H](NC(=O)[C@H](CCCCN)NC(=O)[C@@H](N)Cc2ccccc2)CSC[C@@H](C(=O)N[C@H]2C(=O)N3CCC[C@H]3C(=O)NCC(=O)N[C@H](C(=O)N[C@@H](C)C(=O)N[C@@H](CCCNC(=N)N)C(=O)N/C(=C\C)C(=O)NCC(=O)N[C@@H]3CSC[C@@H]4NC(=O)[C@H](Cc5ccc(O)cc5)NC(=O)[C@@H](CSC[C@@H](C(=O)NC)NC4=O)NC(=O)[C@H](CC(N)=O)NC(=O)[C@H](Cc4ccccc4)NC3=O)CS[C@H]2C)NC(=O)[C@H](CC(C)C)NC1=O [Mutacin 1140 - methylamine] |  | 0.125 (≈ 0.0538 µM) |  |  |  |  |  |  |  |  |  |  |  |  |  | 0.5 (≈ 0.215 µM)
